Patent US7964573B2, “Regulating expression of transient receptor potential channel genes” (The Regents of the University of California, priority 2005, dated 2011)
“Also recorded” adds a separate entry of the source.

Legend:
[1] = test system: TRPC6; assay: TRPC6 mRNA and protein expression in IPAH-PASMC after siRNA transfection (RT-PCR, Western blot); type: cell-based, human; conditions: for TRPC6 protein expression: IPAH-PASMC, transfected
Method: (§1) Another aspect relates to the use of siRNA to inhibit the expression of TRPC6 gene. Human PASMC were isolated and cultured from normal subjects (normal PASMC) and subjects with IPAH (IPAH-PASMC). Levels of canonical TRP (TRPC) isoforms (mRNA and protein) were measured using RT-PCR and Western blot analysis. In addition, levels of TRPC6 in vivo were measured and compared with levels of Ki67, a nuclear protein expressed during S and G2/M phase of the cell cycle, using in situ immunofluorescence staining of proliferating PASMC (see Kuga et al. (1996) Circ. Res. 79:14-19). Cell cycle phase was determined by BrdU uptake and by [^3H]-thymidine incorporation into DNA. PASMC were incubated with [^3H]-thymidine for 16 hours following 24 hours of growth arrest and 48 hours of growth induction and measuring percent extent of radiolabel incorporation into precipitated DNA.
(§2) In separate experiments, siRNA was used to prevent expression and translation of the TRPC6 gene in vitro. Several fragments of open reading frames in the TRPC6 gene were identified which suppressed expression of TRPC6 protein and mRNA levels. […] A scrambled siRNA vector served as a non-silencing control.

[2] = test system: TRPC6; assay: siRNA suppression of TRPC6 protein and mRNA levels in COS-7 cells; type: cell-based
Source text: as §2

[3] = test system: IPAH-PASMC; assay: [3H]-thymidine incorporation (proliferation) in IPAH-PASMC; type: cell-based, human; conditions: proliferating IPAH-PASMC, transfected
Method: as §1, §2

TRPC6 siRNA-2: siRNA against the TRPC6 gene, sequence AAGGTCTTTATGCAATTGCTG (SEQ ID NO: 5) (listed as DNA, chemistry not given here)
TRPC6 protein expression [1]: significantly decreased; also recorded: attenuates | TRPC6 protein expression ([1]; listed as TRPC6 siRNA (SEQ ID NO: 5)): significantly inhibits | TRPC6 mRNA expression level ([1]; PASMC from patients with IPAH): significantly inhibits | suppression of expression of TRPC6 protein and mRNA levels [2]: most effective | [3H]-thymidine incorporation (proliferation) ([3]; listed as TRPC6-siRNA): markedly attenuated | [3H]-thymidine incorporation (proliferation) ([3]; listed as TRPC6 siRNA): significantly decreased; also recorded: attenuates
